From patent US20170112714A1, “METHOD FOR ALLEVIATING OR TREATING ANAPHYLAXIS” (Korea Bio Medical Science Institute, priority 2015, published 2017)

Legend:
Format in all cases: in vivo
HIF-1α = HIF-1α protein levels in brain by Western blotting; details: oral ketotifen in compound 48/80 mice, p<0.05; FIG. 3 (protein and mRNA)
Description: (§1) Mice were given an intraperitoneal (i.p.) injection of compound 48/80 (6.5 mg/kg). The period used to observe mortality was based on the results of a pretest during which mice died within 30 min of administration. […] Mortality was monitored for 40 min post-injection. […] Three independent experiments were performed (n=15/group).
Western blot analysis was performed on brain tissue extracts, as previously described in (Semenza GL: Hypoxia-inducible factor 1: oxygen homeostasis and disease pathophysiology. Trends Mol Med 2001; 7:345-350).

VEGF mRNA = VEGF mRNA levels in brain by quantitative real-time PCR; details: ketotifen in compound 48/80 mice, p<0.05
Description: as §1
Quantitative real-time PCR was performed using SYBR Green master mix and mRNA levels were analyzed using an ABI StepOne real time PCR System (Applied Biosystems, Foster City, Calif., USA). Primer sequences for the reference gene GAPDH and genes of interest were as follows: GAPDH (5′ […] 3′, SEQ ID NO.1; 5′ […] 3′, SEQ ID NO.2); HIF-1α (5′ […] 3′, SEQ ID NO.3; 5′ […] 3′, SEQ ID NO.4); VEGF (5′ […] 3′, SEQ ID NO.5; 5′ […] 3′, SEQ ID NO.6). Typical profile times used were as follows; initial step 95° C. for 10 min followed by a second step at 95° C. for 15 s and 60° C. for 30 s for 40 cycles. Levels of target mRNAs were normalized versus GAPDH. Data were analyzed using the ΔΔCT method.

TNF-α = TNF-α protein levels in brain by ELISA; details: ketotifen in compound 48/80 mice
Description: as §1
Cytokines levels in serum and brain were analyzed by ELISA, as described previously. Cytokine levels in brain were divided according to the total protein levels, which were estimated using a BCA protein assay kit (Pierce, Rockford, Ill., USA).

mice = assay: Compound 48/80-induced systemic anaphylaxis, mortality; details: ketotifen orally 1 mg/kg 1 h before compound 48/80 (6.5 mg/kg i.p.); vs compound 48/80 alone, p<0.01
Description: The original stock of male ICR (4 weeks old) was purchased from the Dae-Han Experimental Animal Center (Eumsung, Chungbuk, Republic of Korea). Animal care and experimental procedures used were approved by the Animal Care Committee of Kyung Hee University [KHUASP (SE)-12-019].
as §1
Jajinmori-jangdan and Hwimori-jangdan (rhythmic cycles) of Buk music were played by Kyung-Ja Ko. The playing conditions were as follows: Jajinmori-jangdan rhythmic cycle of twelve beats, […] (12/8 metre, ? =96 to 144), in an allegro moderated tempo and Hwimori-jangdan rhythmic cycle of 4 beats, 2+2 (4/4 metre, ? =208 to 230), in a presto tempo. The sound of a Buk is a match for the frequency of a baritone voice (139.9 to 355.2 Hz). […] Mice were exposed to Buk music or white noise for 5 min. All experiments were carried out in an environment free of other sounds. Buk music was recorded and copied using a MP3 player to ensure precisely the same music was played for mice in all treatment groups.

ER-β mRNA = ER-β mRNA levels in brain by quantitative real-time PCR; details: ketotifen in compound 48/80 administered mice, p<0.05

CN1CCC(=C2c3ccccc3CC(=O)c3sccc32)CC1 [ketotifen]
HIF-1α levels in brain (HIF-1α): significantly reduced | brain VEGF mRNA levels (VEGF mRNA): significantly reduced | TNF-α protein levels in brain (TNF-α): significantly reduced | mortality induced by compound 48/80 (mice): reduced mortality | ER-β mRNA levels in brain (ER-β mRNA): significantly increased
